# Structures can show the parent of a compound that is named as a salt.
# How the values were obtained:
# [1] = system: galanin receptor; settings: ref Lang et al., 2007; cited from earlier work
# [2] = system: galanin receptor; settings: ref Lang et al., 2007; cited from earlier work; remark: listed apart in the source
# [3] = system: D1 receptors; test: ERK1/2 phosphorylation in transfected CHO cells expressing D1 receptors
# [4] = system: D5 receptors; test: ERK1/2 phosphorylation in transfected CHO cells expressing D5 receptors
# [5] = system: Schaffer-CA1 synaptic transmission in rat ventral hippocampal slices; test: Field EPSP recordings from ventral hippocampal slices
# [6] = system: Schaffer-CA1 synaptic transmission in dorsal hippocampal slices; test: Field EPSP recordings from dorsal hippocampal slices; settings: SKF 38393 20 nM, n=3
# [7] = system: D1-like receptors; settings: ref Hersi et al., 1995; cited from earlier work
molecule,measurement,setting,value
galanin (1–13)-Pro-Pro-(Ala-Leu-)2Ala amide [M40],agonism in cell lines,[1],full agonists in some cell lines
same,antagonism in vivo,[2],clearly antagonists in vivo
same,antagonism of SKF 81297-induced ERK1/2 phosphorylation,"[3]; antagonist 10 µM, 20 min prior, SKF 81297 70 nM, 5 min, cells only expressing D1",not modified by the presence of M40
same,antagonism of SKF 81297-induced ERK1/2 phosphorylation,"[4]; antagonist 10 µM, 20 min prior, SKF 81297 70 nM, 5 min, cells only expressing D5",not modified by the presence of M40
CN1[C@@H]2CC[C@H]1C[C@@H](OC(=O)C(CO)c1ccccc1)C2 (some centres unmarked) [atropine],effect on fEPSP,[5]; atropine 5 µM by itself,did not significantly modify fEPSP
Br.Oc1cc2c(c(Cl)c1O)CCNCC2c1ccccc1 (racemic) [SKF 81297],"ERK1/2 phosphorylation, time course","[3]; SKF 81297 (text 50 nM; Fig. 4 legend 70 nM), cells expressing D1",time-dependently induced ERK1/2 phosphorylation
same,"ERK1/2 phosphorylation, time course","[4]; SKF 81297 50 nM, cells expressing D5",time-dependently induced ERK1/2 phosphorylation
"Oc1cc2c(cc1O)C(c1ccccc1)CNCC2 (racemic) [SKF 38393, (±)-1-Phenyl-2,3,4,5-tetrahydro-(1H)-3-benzazepine-7,8-diol hydrobromide]",effect on fEPSP slope,[6],devoid of any effect on fEPSP slope
same,effect on synaptic transmission (fEPSP),"[5]; SKF 38393 20 nM after atropine (5 µM, at least 30 min before)",did not significantly affect synaptic transmission
same,effect on the slope of fEPSP,"[5]; SKF 38393 20 nM alone, n=7",virtually devoid of effect
NCCc1ccc(O)c(O)c1 [dopamine],effect on hippocampal ACh release,[7],facilitates hippocampal ACh release by acting on D1-like receptors
